Source: patent US6495592B1, “Tracheal smooth muscle relaxants” (Nippon Suisan Kaisha, Ltd., priority 1996, dated 2002)

Tests used:
tracheal smooth muscle = assay: Dilating action to contraction of tracheal smooth muscle (potassium chloride-induced contraction of isolated trachea segment, Magnus tube); assay type: cell-based; conditions: Cavia porcellus; 30 μM test substance; contraction induced by 72.7 mM potassium chloride; guinea pig (Hartley, male) trachea segment; read-out: Activity (suppressing rate for contraction by potassium chloride)
Experimental: Each sample is tested by using two segment obtained from one animal; the trachea was removed from a guinea pig (Hartley, male, seven weeks age) and was made the segment, 6 mm in length. The segment was suspended in a Magnus tube containing a physiological salt solution of 37° C. with a flow of mixed gas consisting of 95% oxygen and 5% carbon dioxide gas. A base-line tension of 1 g was applied to the segment and, after tension of the sample became stable, the solution was exchanged with a solution containing 72.7 mM of potassium chloride to induce a contraction. When tension of the contraction by potassium chloride became stable, a compound of the formula (1) was added as a test substance to measure the change in the tension. The test substance was dissolved in dimethyl sulfoxide and added thereto. Incidentally, at the stage of addition, the final concentration of dimethyl sulfoxide was made not more than 0.3%. Changes in the tension was recorded on a recorder (R-64V, Rika Denki) after introducing to an amplifier for strain pressure (AP-621G, Nippon Koden Kogyo) via an FD pickup transducer (TB-611T, Nippon Koden Kogyo). Tension before addition of potassium chloride was set as 0 while that after addition of potassium chloride was set as 100 and the suppressing rate for contraction by potassium chloride after addition of the test substance was expressed by a relative percentage whereby the activity was determined according to the following criteria.
The Compound No. in the table is the same as that in the Production Examples.

rats = conditions: male, rat, in vivo
Experimental: Toxicity test was conducted only for the Compounds 11, 43 and 80 by means of a single oral administration to rats.
Animals used: three males

Structure (SMILES)	inhibition at 30 µM (tracheal smooth muscle) [%]	minimum lethal dose (rats)
O=C1Cc2ccccc2Oc2cc(O)cc(O)c21 [Compound 11, 7,9-dihydroxy-10,11-dihydrodibenz[b,f]oxepin-10-one]	≥ 50	not less than 2,000 mg/kg
O=C1Cc2ccccc2Sc2cc(O)cc(O)c21 [Compound 80, 7,9-dihydroxy-10,11-dihydrodibenzo[b,f]thiepin-10-one]	≥ 50	not less than 2,000 mg/kg
O=C1Cc2ccccc2Sc2cc(O)c(O)cc21 [Compound 43, 7,8-dihydroxy-10,11-dihydrodibenzo[b,f]thiepin-10-one]		not less than 2,000 mg/kg
Oc1cc(O)c2c(c1)Oc1c(Cl)cc(Cl)cc1CC2 [Compound 35, 6,8-dichloro-10,11-dihydrodibenz[b,f]oxepin-1,3-diol]	≤ 50	
O=C1Cc2cc(Br)ccc2Oc2cc(O)cc(O)c21 [Compound 110, 2-bromo-7,9-dihydroxy-10,11-dihydrodibenzo[b,f]oxepin-10-one]	≥ 50	
Oc1cc2c(cc1O)Oc1ccccc1CC2 [Compound 14, 10,11-dihydrodibenz[b,f]oxepin-2,3-diol]	≤ 50	
CC(=O)Nc1ccc2c(c1)CC(=O)c1c(O)cc(O)cc1O2 [Compound 94, N-acetyl-2-amino-7,9-dihydroxy-10,11-dihydrodibenzo[b,f]oxepin-10-one]	≥ 50	
